Test results as given in PubChem BioAssay AID1963870 (Molecular Pharmacology Branch, DTP, NCI, 2024).

System: 292921-168-R-J2-PDC KRAS tumor spheroid viability
Assay: Anticancer human tumor 292921-168-R-J2-PDC patient-derived pancreatic carcinoma cell line growth inhibition [KRAS2]
Settings: spheroids with HUVEC and MSC; for IC50: curve of first compound; for viability, T/C: stronger effect = lower value
Summary of the method: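 Combination screen of spheroid viability in tumor-cell co-cultures with endothelial (HUVEC) and mesenchymal stem cell stroma. Each agent was tested in half-log dilutions, topping at clinical Cmax or at 10 microM without a known Cmax.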

[1] = second compound 0.1 µM, first compound 0.0316 µM
[2] = second compound 0.316 µM, first compound 0.0316 µM
[3] = second compound 1 µM, first compound 0.0316 µM
[4] = second compound 3.16 µM, first compound 0.0316 µM
[5] = second compound 10 µM, first compound 0.0316 µM
[6] = second compound 0.1 µM, first compound 0.1 µM
[7] = second compound 0.1 µM, first compound 0.316 µM
[8] = second compound 0.1 µM, first compound 1 µM
[9] = second compound 0.1 µM, first compound 3.16 µM
[10] = second compound 0.1 µM, first compound 10 µM
[11] = second compound 0.316 µM, first compound 0.1 µM
[12] = second compound 0.316 µM, first compound 0.316 µM
[13] = second compound 0.316 µM, first compound 1 µM
[14] = second compound 0.316 µM, first compound 3.16 µM
[15] = second compound 0.316 µM, first compound 10 µM
[16] = second compound 1 µM, first compound 0.1 µM
[17] = second compound 1 µM, first compound 0.316 µM
[18] = second compound 1 µM, first compound 1 µM
[19] = second compound 1 µM, first compound 3.16 µM
[20] = second compound 1 µM, first compound 10 µM
[21] = second compound 3.16 µM, first compound 0.1 µM
[22] = second compound 3.16 µM, first compound 0.316 µM
[23] = second compound 3.16 µM, first compound 1 µM
[24] = second compound 3.16 µM, first compound 3.16 µM
[25] = second compound 3.16 µM, first compound 10 µM
[26] = second compound 10 µM, first compound 0.1 µM
[27] = second compound 10 µM, first compound 0.316 µM
[28] = second compound 10 µM, first compound 1 µM
[29] = second compound 10 µM, first compound 3.16 µM
[30] = second compound 10 µM, first compound 10 µM
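Also: drug exposure lasted seven days after spheroids formed for three days.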
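For viability, T/C in this document: percent of DMSO vehicle control viability which is 100%.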

## CC(=O)Nc1cccc(-n2c(=O)n(C3CC3)c(=O)c3c(Nc4ccc(I)cc4F)n(C)c(=O)c(C)c32)c1 + C=CC(=O)N1CCN(c2nc(=O)n(-c3c(C)ccnc3C(C)C)c3nc(-c4c(O)cccc4F)c(F)cc23)C(C)C1
Second compound 0.1 µM
  IC50: 0.34 nM
Second compound 0.316 µM
  IC50: 0.468 nM
Second compound 1 µM
  IC50: 0.395 nM
Second compound 3.16 µM
  IC50: 0.235 nM
Second compound 10 µM
  IC50: < 0.1 nM
Second compound 0.1 µM, first compound 0.0001 µM
  viability, T/C: 90%
Second compound 0.1 µM, first compound 0.000316 µM
  viability, T/C: 51.6%
Second compound 0.1 µM, first compound 0.001 µM
  viability, T/C: 27.4%
Second compound 0.1 µM, first compound 0.00316 µM
  viability, T/C: 18.7%
Second compound 0.1 µM, first compound 0.01 µM
  viability, T/C: 12.8%
[1]
  viability, T/C: 7.68%
Second compound 0.316 µM, first compound 0.0001 µM
  viability, T/C: 92%
Second compound 0.316 µM, first compound 0.000316 µM
  viability, T/C: 60.1%
Second compound 0.316 µM, first compound 0.001 µM
  viability, T/C: 30.3%
Second compound 0.316 µM, first compound 0.00316 µM
  viability, T/C: 18.9%
Second compound 0.316 µM, first compound 0.01 µM
  viability, T/C: 11.9%
[2]
  viability, T/C: 7.86%
Second compound 1 µM, first compound 0.0001 µM
  viability, T/C: 86.9%
Second compound 1 µM, first compound 0.000316 µM
  viability, T/C: 54.4%
Second compound 1 µM, first compound 0.001 µM
  viability, T/C: 31.9%
Second compound 1 µM, first compound 0.00316 µM
  viability, T/C: 19.6%
Second compound 1 µM, first compound 0.01 µM
  viability, T/C: 12.1%
[3]
  viability, T/C: 8.24%
Second compound 3.16 µM, first compound 0.0001 µM
  viability, T/C: 62.1%
Second compound 3.16 µM, first compound 0.000316 µM
  viability, T/C: 46.4%
Second compound 3.16 µM, first compound 0.001 µM
  viability, T/C: 26.8%
Second compound 3.16 µM, first compound 0.00316 µM
  viability, T/C: 17.5%
Second compound 3.16 µM, first compound 0.01 µM
  viability, T/C: 11.5%
[4]
  viability, T/C: 9.06%
Second compound 10 µM, first compound 0.0001 µM
  viability, T/C: 23%
Second compound 10 µM, first compound 0.000316 µM
  viability, T/C: 19.9%
Second compound 10 µM, first compound 0.001 µM
  viability, T/C: 10.9%
Second compound 10 µM, first compound 0.00316 µM
  viability, T/C: 11.7%
Second compound 10 µM, first compound 0.01 µM
  viability, T/C: 9.79%
[5]
  viability, T/C: 9.65%

## Cn1nccc1Nc1nccc(-c2cc3c(s2)C(C)(C)N(CCN2CCOCC2)C3=O)n1 + CC1OCC2(CCN(c3cnc(Sc4ccnc(N)c4Cl)c(N)n3)CC2)C1N
Second compound 0.1 µM
  IC50: 39.3 nM
Second compound 0.316 µM
  IC50: < 31.6 nM
Second compound 1 µM
  IC50: < 31.6 nM
Second compound 3.16 µM
  IC50: < 31.6 nM
Second compound 10 µM
  IC50: < 31.6 nM
[1]
  viability, T/C: 54.5%
[6]
  viability, T/C: 30.8%
[7]
  viability, T/C: 19.1%
[8]
  viability, T/C: 11.7%
[9]
  viability, T/C: 10.5%
[10]
  viability, T/C: 11.7%
[2]
  viability, T/C: 37.1%
[11]
  viability, T/C: 25.7%
[12]
  viability, T/C: 12.6%
[13]
  viability, T/C: 10.9%
[14]
  viability, T/C: 8.88%
[15]
  viability, T/C: 9.52%
[3]
  viability, T/C: 33.9%
[16]
  viability, T/C: 21%
[17]
  viability, T/C: 13.1%
[18]
  viability, T/C: 9.76%
[19]
  viability, T/C: 8.56%
[20]
  viability, T/C: 9.6%
[4]
  viability, T/C: 26.3%
[21]
  viability, T/C: 19.7%
[22]
  viability, T/C: 12.6%
[23]
  viability, T/C: 8.37%
[24]
  viability, T/C: 8.01%
[25]
  viability, T/C: 8.06%
[5]
  viability, T/C: 24.1%
[26]
  viability, T/C: 17.6%
[27]
  viability, T/C: 11%
[28]
  viability, T/C: 8.12%
[29]
  viability, T/C: 6.93%
[30]
  viability, T/C: 7.35%

## CCNC(=O)CC1N=C(c2ccc(Cl)cc2)c2cc(OC)ccc2-n2c(C)nnc21 (stereo not given) + C=CC(=O)N1CCN(c2nc(=O)n(-c3c(C)ccnc3C(C)C)c3nc(-c4c(O)cccc4F)c(F)cc23)C(C)C1
Second compound 0.1 µM
  IC50: 6090 nM
Second compound 0.316 µM
  IC50: 6080 nM
Second compound 1 µM
  IC50: 4240 nM
Second compound 3.16 µM
  IC50: 530 nM
Second compound 10 µM
  IC50: < 31.6 nM
[1]
  viability, T/C: 111%
[6]
  viability, T/C: 104%
[7]
  viability, T/C: 77.2%
[8]
  viability, T/C: 63.1%
[9]
  viability, T/C: 60.7%
[10]
  viability, T/C: 43.4%
[2]
  viability, T/C: 117%
[11]
  viability, T/C: 103%
[12]
  viability, T/C: 81.1%
[13]
  viability, T/C: 68.8%
[14]
  viability, T/C: 63%
[15]
  viability, T/C: 41.5%
[3]
  viability, T/C: 109%
[16]
  viability, T/C: 97%
[17]
  viability, T/C: 77.6%
[18]
  viability, T/C: 65.4%
[19]
  viability, T/C: 54.8%
[20]
  viability, T/C: 40.7%
[4]
  viability, T/C: 78.2%
[21]
  viability, T/C: 69.1%
[22]
  viability, T/C: 53.1%
[23]
  viability, T/C: 43.8%
[24]
  viability, T/C: 35.6%
[25]
  viability, T/C: 26.4%
[5]
  viability, T/C: 29.1%
[26]
  viability, T/C: 26.2%
[27]
  viability, T/C: 23.8%
[28]
  viability, T/C: 16.8%
[29]
  viability, T/C: 9.64%
[30]
  viability, T/C: 6.83%
